Source: ChEMBL document CHEMBL5543064, “Interleukin-1β converting enzyme (ICE): A comprehensive review on discovery and development of caspase-1 inhibitors” (Eur J Med Chem, 2023)

target: T1, Caspase-1 (Homo sapiens, UniProt P29466); experiment: Binding affinity to human caspase-1 assessed as apparent inhibition constant; conditions: read-out: Ki(app)
T1 sequence (P29466 whole entry): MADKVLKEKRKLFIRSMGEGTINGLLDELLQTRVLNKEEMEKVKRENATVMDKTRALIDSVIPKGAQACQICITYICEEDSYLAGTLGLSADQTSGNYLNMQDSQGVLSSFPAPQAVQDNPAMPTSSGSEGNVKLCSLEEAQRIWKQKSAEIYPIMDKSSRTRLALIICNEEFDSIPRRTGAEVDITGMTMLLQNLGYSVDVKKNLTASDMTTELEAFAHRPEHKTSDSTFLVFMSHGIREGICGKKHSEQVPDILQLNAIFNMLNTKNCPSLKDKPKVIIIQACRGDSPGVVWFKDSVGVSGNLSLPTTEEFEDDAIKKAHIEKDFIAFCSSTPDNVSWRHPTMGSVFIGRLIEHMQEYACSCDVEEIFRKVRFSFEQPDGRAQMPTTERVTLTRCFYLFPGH

Ki | SMILES
150 nM | O=C[C@H](CC(=O)O)NC(=O)CCCCCNC(=O)c1ccc(Nc2cnc3ccccc3n2)cc1

target: T1, Caspase-1; experiment: Inhibition of Interleukin-1beta-converting enzyme (unknown origin); conditions: not given

SMILES | IC50
CC1=C(O)C(=O)C=C2C1=CC=C1[C@@]2(C)CC[C@@]2(C)[C@@H]3C[C@@H](C)C(=O)C[C@]3(C)CC[C@]12C [TINGENONE] | 58 nM
COC(=O)[C@]1(C)CC[C@]2(C)CC[C@]3(C)C4=CCc5c(cc(OC(C)=O)c(OC(C)=O)c5C)[C@]4(C)CC[C@@]3(C)[C@@H]2C1 [PRISTIMEROL DIACETATE] | 79 nM
CC1=C(O)C(=O)C=C2C1=CC=C1[C@@]2(C)CC[C@@]2(C)[C@@H]3C[C@](C)(C(=O)O)CC[C@]3(C)CC[C@]12C [CELASTROL] | 40 nM
COC(=O)[C@]1(C)CC[C@]2(C)CC[C@]3(C)C4=CC=C5C(=CC(=O)C(O)=C5C)[C@]4(C)CC[C@@]3(C)[C@@H]2C1 [PRISTIMERIN] | 56 nM
COC(=O)c1ccc(NC(=O)CCCCC(=O)Nc2ccc3c(c2)C(=O)C(=O)NC3=O)cc1 | 19 nM

test system: not listed separately; experiment: Toxicity in Sprague-Dawley rat assessed as […] mortality at 12.5 micromol/kg; conditions: in vivo, 12.5 µmol/kg

SMILES | mortality
CC(=O)C[C@@H](C(=O)CCl)N(C(=O)[C@@H](NC(=O)[C@H](Cc1ccc(O)cc1)NC(C)=O)C(C)C)[C@@H](C)C(N)=O | 33%

target: T1, Caspase-1; experiment: Inhibition of N-terminal His-tagged Caspase-1 (unknown origin); conditions: not given

IC50 | SMILES
820 nM | O=C(O)CC(NC(=O)C(NC(=O)OCc1ccccc1)c1ccccc1)C(=O)COC(=O)c1ccccc1 (configuration not stated)
5560 nM | COC(=O)CC(NC(=O)C(NC(=O)OCc1ccccc1)c1ccccc1)C(=O)COC(=O)c1ccccc1 (configuration not stated)

target: Interleukin-1 beta (Homo sapiens) (UniProt P01584); experiment: Inhibition of human Interleukin-1beta at 30 uM relative to control; conditions: not given
Sequence (P01584 117-269 limits assumed): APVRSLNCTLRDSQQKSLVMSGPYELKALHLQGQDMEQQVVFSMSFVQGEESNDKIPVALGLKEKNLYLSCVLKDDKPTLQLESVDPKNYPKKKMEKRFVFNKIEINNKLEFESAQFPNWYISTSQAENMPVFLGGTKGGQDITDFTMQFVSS

inhibition | SMILES
87% | CCOC(=O)c1ccc(-n2sc(-c3ccccc3Cl)cc2=O)cc1
83% | O=c1cc(-c2ccccc2Cl)sn1-c1ccc(C(F)(F)F)cc1
89% | N#Cc1ccc(-n2sc(-c3ccccc3Cl)cc2=O)cc1

target: T1, Caspase-1; experiment: Binding affinity to caspase-1 (unknown origin) assessed as inhibition constant; conditions: not given

Ki | SMILES
4 nM | CC(C)C(NC(=O)OCc1ccccc1)C(=O)N[C@@H](C)C(=O)NC(CC(=O)O)C(=O)CNS(=O)(=O)CCc1ccccc1 (some centres not stated)
20 nM | C[C@H](NC(=O)[C@H](CCC(=O)O)NC(=O)OCc1ccccc1)C(=O)NC(CC(=O)O)C(=O)CNS(=O)(=O)CCc1ccccc1 (some centres not stated)
850 nM | O=C(CN1C(=O)[C@H](NC(=O)c2ccccc2)CN(C(=O)CCc2ccccc2)c2ccccc21)N[C@H]1CC(=O)OC1O (some centres not stated)

target: T1, Caspase-1; experiment: Inhibition of caspase-1 (unknown origin) using Ac-Tyr-Val-Ala-Asp-AFC as fluorogenic substrate by fluorescence based analysis; conditions: not given

IC50 | SMILES
22 nM | CCCCN(CC(=O)N[C@@H](CC(=O)O)C(=O)COc1ccccc1)C(=O)[C@@H](NC(=O)c1ccc2ccccc2c1)C(C)C
38 nM | CC(C)[C@H](NC(=O)c1ccc2ccccc2c1)C(=O)N1CCC[C@H]1C(=O)N[C@H](C=O)CC(=O)NS(C)(=O)=O
13 nM | CC(C)[C@H](NC(=O)c1ccc2ccccc2c1)C(=O)N(CCCn1ccnc1)CC(=O)N[C@@H](CC(=O)O)C(=O)COc1ccccc1

target: Caspase-1 (Homo sapiens) (UniProt P29466); experiment: Binding affinity to caspase-1 (unknown origin) assessed as inhibition constant; conditions: not given

Ki | SMILES
150 nM | O=CC(CC(=O)O)NC(=O)Cn1c(Cc2ccccc2)ccc(NC(=O)CCc2ccccc2)c1=O (single isomer, unassigned)
1 nM | O=C[C@H](CC(=O)O)NC(=O)[C@@H]1CCCN2C(=O)CC[C@H](NC(=O)c3ccc(OCC(=O)O)cc3)C(=O)N12
970 nM | CC(C(=O)NC(C=O)CC(=O)O)n1c(Cc2ccccc2)ccc(NC(=O)CCc2ccccc2)c1=O (single isomer, unassigned)
900 nM | O=C[C@H](CC(=O)O)NC(=O)Cn1c(-c2ccccc2)ccc(NC(=O)CCc2ccccc2)c1=O

target: T1, Caspase-1; experiment: Inhibition of Caspase-1 (unknown origin); conditions: not given

IC50 | SMILES
11400 nM | O=C[C@H](CC(=O)O)NS(=O)(=O)c1ccccc1-c1cccc2ccccc12
34400 nM | Cc1cccc(S(=O)(=O)N[C@H](C=O)CC(=O)O)c1-c1ccccc1
1000 nM | Cc1cc(Oc2ccccc2S(=O)(=O)N[C@H](C=O)CC(=O)O)ccc1C(C)C
1000 nM | CCC(C)(C)c1ccc(Oc2ccccc2S(=O)(=O)N[C@H](C=O)CC(=O)O)cc1C
2200 nM | CCC(C)(C)c1ccc(Oc2ccccc2S(=O)(=O)N[C@H](C=O)CC(=O)O)cc1
40 nM | C[C@H](NC(=O)C(NC(=O)c1ccc2ccccc2c1)C(=O)O)C(=O)N[C@H](CN=[N+]=[N-])CC(=O)O (some centres not stated)
4.6 nM | CC(C)C(NC(=O)c1ccc2ccccc2c1)C(=O)N[C@@H](C)C(=O)N[C@H](CN=[N+]=[N-])CC(=O)O (some centres not stated)
7.9 nM | CC(C)(NC(=O)CNC(=O)c1ccc2ccccc2c1)C(=O)N[C@H](CN=[N+]=[N-])CC(=O)O

Continued, molecule first:

SMILES | IC50
CC(C)C(NC(=O)OCc1ccccc1)C(=O)N[C@@H](C)C(=O)NC(CC(=O)O)C(=O)CNS(=O)(=O)CCc1ccccc1 (some centres not stated) | 700 nM
C[C@H](NC(=O)C(NC(=O)c1cc2ccccc2[nH]1)C(=O)O)C(=O)N[C@H](CN=[N+]=[N-])CC(=O)O (some centres not stated) | 75 nM
C[C@H](NC(=O)[C@H](CCC(=O)O)NC(=O)OCc1ccccc1)C(=O)NC(CC(=O)O)C(=O)CNS(=O)(=O)CCc1ccccc1 (some centres not stated) | 20 nM

target: T1, Caspase-1; experiment: Binding affinity to N-terminal His-tagged Caspase-1 (unknown origin) assessed as inhibition constant; conditions: not given

Ki | SMILES
80 nM | CC(=O)N[C@H](C(=O)N[C@@H](CC(=O)O)C(=O)COC(=O)Cc1c(Cl)cccc1Cl)C(C)C
113 nM | CC(=O)N[C@H](C(=O)N[C@@H](CC(=O)O)C(=O)COC(=O)Cc1c(Cl)ccc(Cl)c1Cl)C(C)C

test system: not listed separately; experiment: Oral bioavailability in rat; type: ADME, organism-based; conditions: in vivo

bioavailability | SMILES
4% | O=C1C[C@H](NC(=O)[C@@H]2CCCN3C(=O)CC[C@H](NC(=O)c4nccc5ccccc45)C(=O)N23)[C@H](O)O1

target: T1, Caspase-1; experiment: Inhibition of caspase-1 (unknown origin) by fluorescence based analysis; conditions: not given

IC50 | SMILES
1.3 nM | O=C1C[C@H](NC(=O)[C@@H]2CCCN3C(=O)CC[C@H](NC(=O)c4nccc5ccccc45)C(=O)N23)[C@H](O)O1

target: T2, Caspase-8 (Homo sapiens, UniProt Q14790); experiment: Binding affinity to Caspase-8 (unknown origin) using Ac-IETD-AFC as substrate assessed as inhibition constant; conditions: not given
T2 sequence (Q14790 217-374 limits assumed): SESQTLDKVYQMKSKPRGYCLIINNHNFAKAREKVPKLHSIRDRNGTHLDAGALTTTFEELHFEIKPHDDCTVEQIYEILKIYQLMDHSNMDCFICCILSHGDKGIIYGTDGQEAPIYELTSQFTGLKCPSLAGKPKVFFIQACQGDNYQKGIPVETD
T2 sequence (Q14790 385-479 limits assumed): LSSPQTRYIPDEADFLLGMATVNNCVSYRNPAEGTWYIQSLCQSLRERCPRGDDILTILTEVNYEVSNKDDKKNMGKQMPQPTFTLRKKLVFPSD

Ki | SMILES
610 nM | CC(C)[C@H](NC(=O)CCc1ccccc1)C(=O)N[C@@H](C)C(=O)N[C@@H](CC(=O)O)C(=O)CCc1ccccc1
100 nM | CC(C)[C@H](NC(=O)CCc1ccccc1)C(=O)N[C@@H](C)C(=O)N[C@@H](CC(=O)O)C(=O)CCCc1ccccc1
42 nM | CC(=O)N[C@@H](Cc1ccc(O)cc1)C(=O)N[C@H](C(=O)N[C@@H](C)C(=O)N[C@@H](CC(=O)O)C(=O)CCCCc1ccccc1)C(C)C
18.5 nM | CC(=O)N[C@@H](Cc1ccc(O)cc1)C(=O)N[C@H](C(=O)N[C@@H](C)C(=O)N[C@@H](CC(=O)O)C(=O)CCCCCc1ccccc1)C(C)C

target: T2, Caspase-8; experiment: Inhibition of caspase-8 (unknown origin) by fluorescence based analysis; conditions: not given

IC50 | SMILES
0.12 nM | O=C1C[C@H](NC(=O)[C@@H]2CCCN3C(=O)CC[C@H](NC(=O)c4nccc5ccccc45)C(=O)N23)[C@H](O)O1
